Results on two compounds are retold here after publication PMC12227560, “Total synthesis of a sorrentanone ester library and evaluation of its antimicrobial potential” (Scientific Reports, 2025).

For one data set, the system named is B. subtilis ATCC6633. Kind of data set: Antimicrobial broth micro-dilution assay (MIC). To be noted: Bacillus subtilis; B. subtilis ATCC6633; 24 h at 37 °C; highest tested concentration 250 µg/mL; read-out: Minimum inhibitory concentration (MIC). Type of data set: cell-based. From the text:
(§1) 3. Bioactivity and Toxicity Assays
(§2) Antimicrobial assay: According to the standard broth micro-dilution assays, following the Standards of European Committee on Antimicrobial Susceptibility Testing (v 7.3.1: Method for the determination of broth dilution minimum inhibitory concentrations of antifungal agents for yeasts) for Candida spp., and according to the standard broth micro-dilution assays, recommended by the National Committee for Clinical Laboratory Standards (M07-A8) for bacteria MIC values of compounds were determinate. Compounds were dissolved in DMSO at a concentration of 50 mg/mL, and the highest tested concentration was 250 µg/mL. The inoculums were 1x10^5 colony forming units (CFU/mL), for Candida species, and bacteria species, 5x10^5 colony forming units (CFU/mL). The MIC value was recorded as the lowest concentration that inhibited the growth after 24 h at 37 °C. Additionally, 5 µL from each well of 96 well plates was transferred to Luria Agar (LA) plates for bacteria and Sabouraud agar (SAB) plates for Candida spp. and incubated for an additional 24 h at 37 °C, to determine MBC (Minimum bactericidal/fungicidal concentration) values. In Table 1. Are labeled compounds showing a difference in MBC and previously determined MIC values. […]

The next data set has as its system C. albicans ATCC10231. Briefly: Antimicrobial broth micro-dilution assay (MIC). In kind it is cell-based. To be noted: Candida albicans; C. albicans ATCC10231; 24 h at 37 °C; highest tested concentration 250 µg/mL; read-out: Minimum inhibitory concentration (MIC).
Excerpt: as §1, §2
On the technique in general: In broth dilution the organism is exposed to a series of concentrations in liquid medium.

The test system of another data set is E. coli NCTC9001. Briefly: Antimicrobial broth micro-dilution assay (MIC). To be noted: Escherichia coli; E. coli NCTC9001; 24 h at 37 °C; highest tested concentration 250 µg/mL; read-out: Minimum inhibitory concentration (MIC). In kind it is cell-based.
Excerpt: as §1, §2

Another data set concerns P. aeruginosa ATCC27853. Briefly: Antimicrobial broth micro-dilution assay (MIC). Type of data set: cell-based. The settings on record: Pseudomonas aeruginosa; P. aeruginosa ATCC27853; 24 h at 37 °C; highest tested concentration 250 µg/mL; read-out: Minimum inhibitory concentration (MIC).
Excerpt: as §1, §2

Another data set deals with S. aureus ATCC25923. Kind of data set: Antimicrobial broth micro-dilution assay (MIC). Type of data set: cell-based. To be noted: Staphylococcus aureus; S. aureus ATCC25923; 24 h at 37 °C; highest tested concentration 250 µg/mL; read-out: Minimum inhibitory concentration (MIC).
Excerpt: as §1, §2

A further data set relates to S. aureus MRSA. Kind of data set: Antimicrobial broth micro-dilution assay (MIC). In kind it is cell-based. The settings on record: Staphylococcus aureus; S. aureus MRSA; 24 h at 37 °C; highest tested concentration 250 µg/mL; read-out: Minimum inhibitory concentration (MIC).
Excerpt: as §1, §2

The subject of data set [1] is human lung fibroblast cell line (MRC-5). Briefly: Cytotoxicity evaluation by MTT assay. Type of data set: cell-based.
Excerpt: as §1
Antimicrobial assay: According to the standard broth micro-dilution assays, following the Standards of European Committee on Antimicrobial Susceptibility Testing (v 7.3.1: Method for the determination of broth dilution minimum inhibitory concentrations of antifungal agents for yeasts) for Candida spp., and according to the standard broth micro-dilution assays, recommended by the National Committee for Clinical Laboratory Standards (M07-A8) for bacteria MIC values of compounds were determinate. Compounds were dissolved in DMSO at a concentration of 50 mg/mL, and the highest tested concentration was 250 µg/mL. The inoculums were 1x10^5 colony forming units (CFU/mL), for Candida species, and bacteria species, 5x10^5 colony forming units (CFU/mL). The MIC value was recorded as the lowest concentration that inhibited the growth after 24 h at 37 °C. Additionally, 5 µL from each well of 96 well plates was transferred to Luria Agar (LA) plates for bacteria and Sabouraud agar (SAB) plates for Candida spp. and incubated for an additional 24 h at 37 °C, to determine MBC (Minimum bactericidal/fungicidal concentration) values. In Table 1. Are labeled compounds showing a difference in MBC and previously determined MIC values.
Cytotoxicity evaluation: Antiproliferative activity was tested by MTT assay (3-(4,5-dimethylthiazol-2-yl)-2,5-diphenyltetrazoliumbromide) on a human lung fibroblast cell line (MRC-5; ATCC collection). Pre-grown (24 h) cell monolayers (1x10^4 cells per well) in RPMI 1640 medium supplemented with 100 μg/mL streptomycin, 100 U/mL penicillin, and 10% (v/v) FBS (all from Sigma, Munich, Germany) containing the tested compounds at concentrations ranging from 5 to 20 μg/mL were incubated in a humidified atmosphere of 95% air and 5% CO2 at 37 °C for 48 h. The cell viability (extent of MTT reduction) was measured spectrophotometrically at 540 nm using the Epoch 2000 multiplate reader, and the cell survival was expressed as a percentage of the control (untreated cells). Cytotoxicity was expressed as the concentration of the compound inhibiting cell growth by 50% (IC 50). […]

Data set [2] deals with C. albicans ATCC 10231 hyphae formation. Kind of data set: Filamentation test on Candida (solid spider medium). In kind it is cell-based, Candida albicans. The settings on record: for relative activity in inhibition of filament formation (in words): compared with 36 and 41, sub-inhibitory concentrations. On the procedure: Filamentation test on Candida: Using solid composition, the effect of sorrentano ne […]
albicans cells from an overnight culture grown in Sabouraud dextrose broth medium at 37 °C with or without compounds were centrifuged for 10 minutes at maximum speed, and the pellet was washed several times with sterile PBS (phosphate -buffered saline). After it, the pellet was resuspended in 200 µL PBS, and 2 µL of cell suspension was poured over solid composition and incubated at 37 °C for 120 h. Morphological changes of C. albicans ATCC

Data set [3] has as its system C. albicans ATCC10231 biofilm formation. Briefly: Anti-biofilm activity assessment (crystal violet). Type of data set: cell-based, Candida albicans. To be noted: for inhibition of biofilm formation (in words): data not shown. On the procedure:
Anti-biofilm activity assessment: The effect of compounds on biofilms formation was determined on C. albicans ATCC 10231 strain. Anti -biofilm assays were conducted using a previously reported methodology with small modifica tions.9 The assay was carried out in 96 - well round-bottom polystyrene microtiter plates. Cells wer e harvested from overnight grown cultures, washed twice with sterile phosphate -buffered saline (PBS; Sigma -Aldrich, Munich, Germany), and resuspended in RPMI 1640 medium (Sigma -Aldrich) containing 2% glucose (w/v) at a concentration of 1 × 10^5 CFU/mL. C. albicans suspension was incubated with 0.5 MIC, 1 MIC, and 2 MIC compounds concentration in 200.0 μL final volume per well for 48 h at 37 °C to allow biofilm formation. Biofilm growth was analyzed by crystal violet (CV) staining of adherent cells and the a bsorbance at 590.0 nm was read on a Tecan Infinite 200 Pro multiplate reader (Tecan Group Ltd., Männedorf, Switzerland). […]

The test system of data set [4] is ergosterol in C. albicans. Kind of data set: Ergosterol biosynthesis assay. In kind it is cell-based, Candida albicans. The settings on record: 0.5 MIC; Candida cells; UV profile. On the procedure: Ergosterol biosynthesis assay: Ergosterol levels were measured according to the published procedure with some minor modifications. 10 Briefly, a sing le C. albicans colony from an overnight Sabouraud dextrose agar plate was used to inoculate 50 ml of Sabouraud dextrose broth containing 0.5 MIC concentrated compounds. Incubation was performed for 18 h at 37 °C on the rotary shaker at 180 rpm. Cells were harvested by centrifugation at 3000 rpm for 5 min and washed once with sterile distilled water. The net wet weight of the cell pellet was determined. Three milliliters of 25% alcoholic potassium hydroxide solution (25 g of KOH and 35 ml of sterile distill ed water, brought to 100 ml with 100% ethanol), was added to each pellet and vortex mixed for 1 min and incubated in an 85 °C water bath for 1 h. Tubes were cooled to room temperature and extraction of sterols was done with the addition of a mixture of 1 ml of sterile distilled water and 3 ml of n-heptane followed by vigorous vortex mixing for 3 min. The heptane layer was used for spectrophotometrically measuring ergosterol concentrations by scanning absorbance between 240 nm and 300 nm using Ultrospec 3300pro 573 (Amer sham Biosciences, Amersham, UK).

For the next data set, the system named is Bacillus subtilis. Set-up: method as in PMID 37687129, PMID 7622440. To be noted: cited from earlier work.
The test system of a further data set is Enterococcus faecalis. Also noted: method as in PMID 37687129, PMID 7622440. To be noted: cited from earlier work.
Data set [5] relates to various Streptococcus and Staphylococcus species. Also noted: method as in PMID 37687129, PMID 7622440. To be noted: cited from earlier work.
Data set [6] relates to two S. aureus strains and B. subtilis ATCC6633. Briefly: Antimicrobial assay, Gram-positive bacteria. The settings on record: from MIC values. In kind it is cell-based.
Excerpt: as §1, §2

Converted amounts (≈) assume the structure as drawn.

On to `C/C=C/C=C/C(=O)C1=C(C)C(=O)C(O)=C(C)C1=O` [compound 7, sorrentanone], for which the MIC in the data set on B. subtilis ATCC6633 was 62.5 µg/mL (≈ 254 µM); in the data set with C. albicans ATCC10231, 125 µg/mL (≈ 508 µM); in the data set on E. coli NCTC9001 it was above 250 µg/mL; in the data set on P. aeruginosa ATCC27853 it was above 250 µg/mL; in the data set with S. aureus ATCC25923, 62.5 µg/mL (≈ 254 µM); with S. aureus MRSA, 31.2 µg/mL (≈ 127 µM). Moreover, in data set [1] (MRC-5 cells), the “in vitro toxicity ranking (in words)” value was “highest toxicity”. Besides, the “selectivity index (SI)” value in [1] (cytotoxicity versus antibiotic activity, calculation not described) is 1.12. Besides, in data set [2] (0.5 times MIC, 120 h, C. albicans ATCC10231), the “filamentation (in words)” value is listed as “already show filamentation after 120 h”. For the same compound, the “relative activity in inhibition of filament formation (in words)” value in data set [2] is listed as “less active”. The “inhibition of biofilm formation (in words)” value in [3] is on record as “displayed inhibition of biofilm formation”. The “inhibition of biofilm formation” value in data set [3] (sub-inhibitory concentration (0.5 times MIC), 48 h) was 60–77%. The “reduction of total amount of ergosterol (in words)” value in [4] is given as “most potent in reducing the total amount of ergosterol”. Besides, the IC50 with Bacillus subtilis is 32.0 µg/mL (≈ 130 µM); with Enterococcus faecalis it was 128 µg/mL (≈ 520 µM); in data set [5], 16.0 to 64.0 µg/mL.

Turning to `C=CCCCOC(=O)C1=C(C)C(=O)C(O)=C(C)C1=O` [compound 39], the MIC is 15.6 µg/mL (≈ 59 µM) with B. subtilis ATCC6633; 62.5 µg/mL (≈ 236 µM) in the data set on C. albicans ATCC10231; above 250 µg/mL in the data set with E. coli NCTC9001; above 250 µg/mL in the data set on P. aeruginosa ATCC27853; 62.5 µg/mL (≈ 236 µM) with S. aureus ATCC25923; 62.5 µg/mL (≈ 236 µM) with S. aureus MRSA. The “relative activity in inhibition of filament formation (in words)” value in data set [2] is listed as “less active”. For the same compound, in data set [3], the “inhibition of biofilm formation (in words)” value is given as “displayed inhibition of biofilm formation”. For the same compound, in [4], the “reduction of total amount of ergosterol (in words)” value is “most potent in reducing the total amount of ergosterol”. The “improvement of antibacterial activity compared to sorrentanone (7)” value in data set [6] was “two- to four-fold improved activity”.

The IC50 is the concentration needed to halve the response being measured.
